According to patent US11666558B2, “Methods of treating intraocular pressure with activators of Tie-2” (EyePoint Pharmaceuticals, Inc., priority 2015, dated 2023):
Values joined by “and” are separate entries in the source; they are usually repeats but may differ in a detail not shown here. Identical values can stand only once. Counter-ions that a name gives are not always drawn. Like-named read-outs stand apart in the source and are kept apart here.

Experiment: Ocular tissue concentrations (aqueous humor, vitreous humor, iris, retina, choroid, cornea) after topical ocular, subcutaneous and intravitreal administration
Format: in vivo, New Zealand White rabbits
Conditions: for Average Peak Concentration, Vitreous Humor: solution
Protocol: To measure the concentration of Compound 1 in plasma and ocular tissues following topical ocular, subcutaneous, and intravitreal administration, New Zealand White rabbits were administered Compound 1, and plasma and ocular samples were collected at pre-determined time points. Compound 1 formulations were prepared fresh on each day of dosing.
Ocular tissue samples from both eyes of each animal were collected and weights were recorded. Plasma and ocular tissue sample concentrations of Compound 1 were determined by LC-MS/MS.
New Zealand White rabbits weighing 2.5 to 3.5 kg were used on this study. Rabbits were housed one per cage. Animals were not fasted and only healthy animals with no ocular illness were used. Two rabbits per group were sacrificed at each of four ocular tissue sampling time points for a total of eight rabbits per group.
Animals were anesthetized for ocular (topical) and intravitreal dosing following the 12IA7 IACUC protocol. Each rabbit received a bolus dose of test formulation either via topical ocular administration 3 times daily on Days 1 and 2 (at 0, 6, and 12 hours), and once on Day 3 (at 0 hours) into both eyes; via intravitreal administration into both eyes once on Day 1 (at 0 hours); or via subcutaneous administration 2 times daily on Days 1 and 2 (at 0 and 8 hours) and once daily on Day 3 (at 0 hours). Doses were given within an approximately 1 hour window each day where applicable.
On Day 1, for intravitreal administration, or on Day 3, for topical ocular and subcutaneous administration, at the appropriate ocular tissue collection time points, animals were euthanized and both eyes were enucleated immediately. Following enucleation, each eye was rinsed with phosphate-buffered saline. Ocular tissue samples from both eyes of each animal were collected at predetermined time points and weights were recorded. All the samples were frozen immediately on dry ice, and stored at −60° C. to −80° C. pending bioanalysis.
An LC-MS/MS method was developed for the determination of Compound 1 in rabbit aqueous tissues (plasma, aqueous and vitreous humor) and solid ocular tissue samples. A pre-study standard curve was analyzed to determine the specificity, range, and lower limit of quantitation of the method. Plasma and tissue homogenate study samples were extracted and analyzed. All the samples were treated identically to the standards.
One eight-point standard curve was used in each analytical batch. To be accepted, each batch must have had at least five of eight standards with accuracy within ±20% of nominal, except at the lower limit of quantification (LLOQ), where ±25% was acceptable.
Concentration versus time data is plotted in FIGS. 3-16. All data are expressed as ng/g of the free drug. Samples that were below the limit of quantitation (0.2 ng/mL) were not used in the calculation of averages.

[1] = Group 1 topical ocular 1.2 mg/eye, 2.0 hr
[2] = Group 1 topical ocular 1.2 mg/eye, 4.0 hr
[3] = Group 2 subcutaneous 5 mg/kg, 0.5 hr
[4] = Group 2 subcutaneous 5 mg/kg, 1.0 hr
[5] = Group 2 subcutaneous 5 mg/kg, 2.0 hr
[6] = Group 2 subcutaneous 5 mg/kg, 4.0 hr
[7] = Group 4 intravitreal 2.5 mg per eye, 6.0 hr
[8] = Group 4 intravitreal 2.5 mg per eye, 24 hr
[9] = Group 4 intravitreal 2.5 mg per eye, 48 hr
[10] = Group 4 intravitreal 2.5 mg per eye, 72 hr

Structure (SMILES): COC(=O)N[C@@H](Cc1ccccc1)C(=O)N[C@@H](Cc1ccc(NS(=O)(=O)O)cc1)c1csc(-c2cccs2)n1 [Compound 1 sodium salt]
- Average Peak Concentration, Vitreous Humor (Group 1 topical ocular 0.70 mg/kg/dose): 0.61 ng/g
- aqueous humor Conc., individual eyes (OD, OS) (Group 1 topical ocular 1.2 mg/eye, 0.5 hr): 3.44 ng/mL and 1.78 ng/mL and 12.8 ng/mL
- aqueous humor Conc., individual eyes (OD, OS) (Group 1 topical ocular 1.2 mg/eye, 1.0 hr): 3.55 ng/mL and 3.05 ng/mL
- aqueous humor Conc., individual eyes (OD, OS) [1]: 2.46 ng/mL and 14.5 ng/mL and 15.8 ng/mL
- vitreous humor Conc., individual eyes (OD, OS) [1]: 1.14 ng/mL and 0.950 ng/mL
- aqueous humor Conc., individual eyes (OD, OS) [2]: 5.48 ng/mL and 5.61 ng/mL and 7.78 ng/mL and 14.1 ng/mL
- vitreous humor Conc., individual eyes (OD, OS) [2]: 1.09 ng/mL and 2.20 ng/mL and 0.551 ng/mL
- Average Peak Concentration, Vitreous Humor (Group 2 subcutaneous 5 mg/kg/dose): 0.83 ng/g
- aqueous humor Conc., individual eyes (OD, OS) [3]: 23.5 ng/mL and 24.6 ng/mL and 18.0 ng/mL and 38.2 ng/mL
- vitreous humor Conc., individual eyes (OD, OS) [3]: 1.03 ng/mL and 0.537 ng/mL and 0.981 ng/mL
- aqueous humor Conc., individual eyes (OD, OS) [4]: 4.51 ng/mL and 1.84 ng/mL and 3.22 ng/mL and 3.63 ng/mL
- vitreous humor Conc., individual eyes (OD, OS) [4]: 0.252 ng/mL and 0.766 ng/mL and 0.442 ng/mL and 0.337 ng/mL
- aqueous humor Conc., individual eyes (OD, OS) [5]: 0.498 ng/mL and 0.453 ng/mL
- vitreous humor Conc., individual eyes (OD, OS) [5]: BLOQ (Below the limit of quantitation (0.2 ng/mL))
- aqueous humor Conc., individual eyes (OD, OS) [6]: BLOQ (Below the limit of quantitation (0.2 ng/mL))
- vitreous humor Conc., individual eyes (OD, OS) [6]: BLOQ (Below the limit of quantitation (0.2 ng/mL))
- aqueous humor Conc., individual eyes (OD, OS) [7]: 77100 ng/mL and 75300 ng/mL and 79300 ng/mL
- vitreous humor Conc., individual eyes (OD, OS) [7]: 1450000 ng/mL and 1480000 ng/mL and 432000 ng/mL
- aqueous humor Conc., individual eyes (OD, OS) [8]: 5190 ng/mL and 6810 ng/mL
- vitreous humor Conc., individual eyes (OD, OS) [8]: 295000 ng/mL and 406000 ng/mL and 259000 ng/mL
- aqueous humor Conc., individual eyes (OD, OS) [9]: 1510 ng/mL and 2330 ng/mL and 1970 ng/mL
- vitreous humor Conc., individual eyes (OD, OS) [9]: 82300 ng/mL and 68600 ng/mL and 91900 ng/mL
- aqueous humor Conc., individual eyes (OD, OS) [10]: 23.2 ng/mL and 16.1 ng/mL and 49.7 ng/mL and 49.0 ng/mL
- vitreous humor Conc., individual eyes (OD, OS) [10]: 13500 ng/mL and 11700 ng/mL and 14100 ng/mL
- concentration at 6 hr (New Zealand White, rabbit, aqueous humor, other: intravitreal, 2.5 mg per eye, Group 4 intravitreal 2.5 mg per eye, 6.0 hr, read-out: aqueous humor Average Conc.): 80600 ng/g
- concentration at 6 hr (New Zealand White, rabbit, aqueous humor, other: intravitreal, 2.5 mg per eye, Group 4 intravitreal 2.5 mg per eye, 6.0 hr, read-out: aqueous humor Conc., individual eyes (OD, OS)): 90600 ng/mL
- concentration at 24 hr (New Zealand White, rabbit, aqueous humor, other: intravitreal, 2.5 mg per eye, Group 4 intravitreal 2.5 mg per eye, 24 hr, read-out: aqueous humor Average Conc.): 9000 ng/g
- concentration at 24 hr (New Zealand White, rabbit, aqueous humor, other: intravitreal, 2.5 mg per eye, Group 4 intravitreal 2.5 mg per eye, 24 hr, read-out: aqueous humor Conc., individual eyes (OD, OS)): 4700 ng/mL
- concentration at 48 hr (New Zealand White, rabbit, aqueous humor, other: intravitreal, 2.5 mg per eye, Group 4 intravitreal 2.5 mg per eye, 48 hr, read-out: aqueous humor Average Conc.): 1960 ng/g
- concentration at 48 hr (New Zealand White, rabbit, aqueous humor, other: intravitreal, 2.5 mg per eye, Group 4 intravitreal 2.5 mg per eye, 48 hr, read-out: aqueous humor Conc., individual eyes (OD, OS)): 2040 ng/mL
- concentration at 72 hr (New Zealand White, rabbit, aqueous humor, other: intravitreal, 2.5 mg per eye, Group 4 intravitreal 2.5 mg per eye, 72 hr, read-out: aqueous humor Average Conc.): 34.5 ng/g
- concentration at 0.5 h (New Zealand White, rabbit, aqueous humor, subcutaneous, 5 mg/kg, Group 2 subcutaneous 5 mg/kg, 0.5 hr, read-out: aqueous humor Average Conc.): 26.1 ng/g
- concentration at 1 h (New Zealand White, rabbit, aqueous humor, subcutaneous, 5 mg/kg, Group 2 subcutaneous 5 mg/kg, 1.0 hr, read-out: aqueous humor Average Conc.): 3.3 ng/g
- concentration at 2 h (New Zealand White, rabbit, aqueous humor, subcutaneous, 5 mg/kg, Group 2 subcutaneous 5 mg/kg, 2.0 hr, read-out: aqueous humor Average Conc.): 0.72 ng/g
- concentration at 2 h (New Zealand White, rabbit, aqueous humor, subcutaneous, 5 mg/kg, Group 2 subcutaneous 5 mg/kg, 2.0 hr, read-out: aqueous humor Conc., individual eyes (OD, OS)): 0.581 ng/mL
- concentration at 0.5 hr (New Zealand White, rabbit, aqueous humor, topical, 1.2 mg/eye, Group 1 topical ocular 1.2 mg/eye, 0.5 hr, read-out: aqueous humor Average Conc.): 45.8 ng/g
- concentration at 1 hr (New Zealand White, rabbit, aqueous humor, topical, 1.2 mg/eye, Group 1 topical ocular 1.2 mg/eye, 1.0 hr, read-out: aqueous humor Average Conc.): 15 ng/g
- concentration at 1 hr (New Zealand White, rabbit, aqueous humor, topical, 1.2 mg/eye, Group 1 topical ocular 1.2 mg/eye, 1.0 hr, read-out: aqueous humor Conc., individual eyes (OD, OS)): 4.03 ng/mL
- concentration at 2 h (New Zealand White, rabbit, aqueous humor, topical, 1.2 mg/eye, Group 1 topical ocular 1.2 mg/eye, 2.0 hr, read-out: aqueous humor Average Conc.): 31.6 ng/g
